Results: US20190062305A1, “PYRIDYL OR PYRAZINYL COMPOUNDS CARRYING A METHYL-BOUND ALPHA-AMINO ACID AMIDE GROUP” (ABBVIE DEUTSCHLAND GMBH & CO. KG, priority 2015, published 2019)
Structures can show the parent of a compound that is named as a salt. Where two headings read alike, the source gives them in different places.

Experiments:
[1] = Metabolic stability in human liver microsomes, unbound intrinsic clearance (Cl int/fu mic); format: in vitro ADME; conditions: pH 7.4, human liver microsomes 0.25 mg/mL, 0.5 μM compound, NADPH, read-out: Cl int, mic unb. (h) [l/h/kg] (unbound intrinsic clearance, human)
Procedure, shortened: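 Unbound intrinsic clearance is CLint divided by fu mic, with the unbound fraction measured by 4 h HTDialysis at 37 °C of 0.25 mg/ml microsomes spiked with 0.5 µM compound. For CLint, 0.5 µM compound was incubated with 0.25 mg/mL human microsomes and 1.0 mM NADPH (pH 7.4, 37 °C). Substrate loss over 30 min was measured by LC-MS/MS and t1/2 assumed first-order kinetics.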

5-HT2C receptor = molecular target: T1, 5-HT2C receptor (Homo sapiens, UniProt P28335); assay: Human 5-HT2C functional assay (beta-arrestin2 recruitment, U2OS_HTR2C_β-Arrestin cells); format: cell-based; conditions: for EC50: beta-arrestin2 recruitment, U2OS_HTR2C_β-Arrestin cells, 1.5 h incubation, read-out: EC50 5-HT2C (potency in functional assay); for Emax: relative efficacy vs response to 10 μM 5-HT or maximal 5-HT effect (100%)
T1 construct: host or cells: U2OS
T1 sequence (P28335 33-458): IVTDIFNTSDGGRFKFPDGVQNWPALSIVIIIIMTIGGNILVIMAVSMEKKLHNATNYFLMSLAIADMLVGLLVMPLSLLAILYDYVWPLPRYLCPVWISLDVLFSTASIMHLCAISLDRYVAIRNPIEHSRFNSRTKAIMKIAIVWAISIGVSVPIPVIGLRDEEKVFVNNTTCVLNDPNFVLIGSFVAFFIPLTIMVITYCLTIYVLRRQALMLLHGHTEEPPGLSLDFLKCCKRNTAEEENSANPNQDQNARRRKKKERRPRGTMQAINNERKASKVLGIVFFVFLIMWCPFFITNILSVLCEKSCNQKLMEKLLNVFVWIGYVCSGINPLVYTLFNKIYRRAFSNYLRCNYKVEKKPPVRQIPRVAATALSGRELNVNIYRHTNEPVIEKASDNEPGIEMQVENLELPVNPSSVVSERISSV
T1 sequence (P32121 whole entry partner): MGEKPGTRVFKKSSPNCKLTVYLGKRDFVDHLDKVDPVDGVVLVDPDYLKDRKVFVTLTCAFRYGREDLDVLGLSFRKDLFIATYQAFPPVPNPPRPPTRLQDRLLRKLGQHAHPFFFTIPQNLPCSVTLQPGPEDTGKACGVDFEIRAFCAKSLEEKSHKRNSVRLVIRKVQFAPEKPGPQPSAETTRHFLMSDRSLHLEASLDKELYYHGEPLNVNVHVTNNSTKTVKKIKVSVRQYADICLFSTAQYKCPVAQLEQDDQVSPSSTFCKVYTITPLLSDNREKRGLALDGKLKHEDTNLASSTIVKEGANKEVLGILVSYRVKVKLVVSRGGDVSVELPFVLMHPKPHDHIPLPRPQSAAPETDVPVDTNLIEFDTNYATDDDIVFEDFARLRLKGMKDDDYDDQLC
Procedure, shortened: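 EC50 and relative efficacy came from 4-parameter variable-slope fits, normalised to 10 µM 5-HT or maximal 5-HT response (100%). Luminescent β-galactosidase enzyme-complementation signal was read after 1.5 h compound exposure in U2OS_HTR2C_β-Arrestin cells held in 1% serum medium from the prior day.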

SMILES | CLint scaled at 0.5 μM ([1]; human, liver microsomes) | EC50 (5-HT2C receptor) | Emax (5-HT2C receptor) | CLint scaled at 0.5 μM [1]
COc1nc(N2CCCC(F)C2)c(F)cc1CNC(=O)[C@@H]1CCCN1 (stereo partly drawn) [Example 161, (2S)—N-[[5-Fluoro-6-(3-fluoro-1-piperidyl)-2-methoxy-3-pyridyl]methyl]-pyrrolidine-2-carboxamide; 2,2,2-trifluoroacetic Acid] | < 5 L/h/kg | 20 to 200 nM | 50 to 70% | 
COc1nc(OCC(F)F)c(F)cc1CNC(=O)[C@@H]1CCCN1 [Example 86, (2S)—N-[[6-(2,2-Difluoroethoxy)-5-fluoro-2-methoxy-3-pyridyl]methyl]pyrrolidine-2-carboxamide; 2,2,2-trifluoroacetic Acid] | < 5 L/h/kg | < 20 nM | > 70% | 
COc1nc(OC2CCC(F)(F)CC2)c(F)cc1CN(C)C(=O)[C@@H]1CCCN1 [Example 114, (2S)—N-[[6-(4,4-Difluorocyclohexoxy)-5-fluoro-2-methoxy-3-pyridyl]methyl]-N-methyl-pyrrolidine-2-carboxamide Hydrochloride] | 5 to 50 L/h/kg | < 20 nM | > 70% | 
COc1nc(OC2CCC(C(F)(F)F)CC2)c(F)cc1CNC(=O)[C@@H]1C[C@@H](C)CN1C (stereo partly drawn) [Example 62, (2S,4R)—N-[[5-Fluoro-2-methoxy-6-[4-(trifluoromethyl)cyclohexoxy]-3-pyridyl]methyl]-1,4-dimethyl-pyrrolidine-2-carboxamide Hydrochloride] | 50 to 500 L/h/kg | 20 to 200 nM | > 70% | 
COc1nc(OCC2CCC(C(F)(F)F)CC2)c(F)cc1CNC(=O)[C@@H]1CCCN1C (stereo partly drawn) [Example 15, (2S)—N-[[5-Fluoro-2-methoxy-6-[[4-(trifluoromethyl)cyclohexyl]methoxy]-3-pyridyl]methyl]-1-methyl-pyrrolidine-2-carboxamide] | 50 to 500 L/h/kg | < 20 nM | > 70% | 
COc1nc(NC2CCC(F)(F)CC2)c(F)cc1CN(C)C(=O)[C@@H]1CCCN1 [Example 166, (2S)—N-[[6-[(4,4-Difluorocyclohexyl)amino]-5-fluoro-2-methoxy-3-pyridyl]methyl]-N-methyl-pyrrolidine-2-carboxamide; 2,2,2-trifluoroacetic Acid] | < 5 L/h/kg | 20 to 200 nM | 50 to 70% | 
COc1nc(OC2CCCC3C2C3(F)F)c(F)cc1CNC(=O)[C@@H]1CCCN1 (stereo partly drawn) [Example 95, (2S)—N-[[6-(7,7-Difluoronorcaran-2-yl)oxy-5-fluoro-2-methoxy-3-pyridyl]methyl]-pyrrolidine-2-carboxamide] | 5 to 50 L/h/kg | < 20 nM | > 70% | 
COc1nc(C2CCC(OC)CC2)c(F)cc1CNC(=O)[C@@H]1CCCN1 (stereo partly drawn) [Example 172, (2S)—N-[[5-Fluoro-2-methoxy-6-(4-methoxycyclohexyl)-3-pyridyl]methyl]-pyrrolidine-2-carboxamide] | < 5 L/h/kg | 20 to 200 nM | > 70% | 
COc1nc(OCC2CC3C(C2)C3(F)F)c(F)cc1CNC(=O)[C@@H]1CCCN1 (stereo partly drawn) [Example 56, (2S)—N-[[6-[(6,6-Difluoro-3-bicyclo[3.1.0]hexanyl)methoxy]-5-fluoro-2-methoxy-3-pyridyl]methyl]pyrrolidine-2-carboxamide; 2,2,2-trifluoroacetic Acid] | 5 to 50 L/h/kg | < 20 nM | > 70% | 
COc1nc(OCC2CC(F)(F)C2)c(F)cc1CNC(=O)[C@@H]1CCCN1 [Example 42, (2S)—N-[[6-[(3,3-Difluorocyclobutyl)methoxy]-5-fluoro-2-methoxy-3-pyridyl]-methyl]pyrrolidine-2-carboxamide; Succinic Acid] | < 5 L/h/kg | < 20 nM | > 70% | 
COc1nc(OC2CCC(C(C)(F)F)CC2)c(F)cc1CNC(=O)[C@@H]1CCCN1 (stereo partly drawn) [Example 72, (2S)—N-((6-((4-(1,1-Difluoroethyl)cyclohexyl)oxy)-5-fluoro-2-methoxypyridin-3-yl)methyl)pyrrolidine-2-carboxamide 2,2,2-trifluoroacetate] | 5 to 50 L/h/kg | < 20 nM | > 70% | 
COc1nc(N2CCCC3(C2)CC3(F)F)c(F)cc1CNC(=O)[C@@H]1CCCN1 (stereo partly drawn) [Example 188, (2S)—N-[[6-(2,2-Difluoro-7-azaspiro[2.5]octan-7-yl)-5-fluoro-2-methoxy-3-pyridyl]methyl]pyrrolidine-2-carboxamide; 2,2,2-trifluoroacetic Acid] |  | 20 to 200 nM | > 70% | 5 to 50 L/h/kg
COc1nc(O[C@H]2CC[C@H](C(F)(F)F)CC2)c(F)cc1CNC(=O)[C@@H]1CCCN1C [Example 8, (2S)—N-[[5-Fluoro-2-methoxy-6-[trans-4-(trifluoromethyl)cyclohexoxy]-3-pyridyl]methyl]-1-methyl-pyrrolidine-2-carboxamide; Fumaric Acid] | 5 to 50 L/h/kg | < 20 nM | > 70% | 
COc1nc(OC2CCC(OC)CC2)c(F)cc1CNC(=O)[C@@H]1CCCN1C (stereo partly drawn) [Example 13, (2S)—N-[[5-Fluoro-2-methoxy-6-(4-methoxycyclohexoxy)-3-pyridyl]methyl]-1-methyl-pyrrolidine-2-carboxamide; Fumaric Acid] | < 5 L/h/kg | 20 to 200 nM | > 70% | 
COc1nc(OC2CCC(F)(F)CC2)c(F)cc1CNC(=O)[C@@H]1C[C@@H](C)CN1 [Example 59, (2 S,4R)—N-[[6-(4,4-Difluorocyclohexoxy)-5-fluoro-2-methoxy-3-pyridyl]methyl]-4-methyl-pyrrolidine-2-carboxamide Hydrochloride] | < 5 L/h/kg | < 20 nM | 50 to 70% | 
COc1nc(N2CCC(C(F)(F)F)C2)c(F)cc1CNC(=O)[C@@H]1CCCN1 (stereo partly drawn) [Example 163, (2S)—N-[[5-Fluoro-2-methoxy-6-[3-(trifluoromethyl)pyrrolidin-1-yl]-3-pyridyl]methyl]pyrrolidine-2-carboxamide; 2,2,2-trifluoroacetic Acid] | 5 to 50 L/h/kg | < 20 nM | > 70% | 
COc1nc(N2CCC(F)(F)CC2)c(F)cc1CNC(=O)[C@@H]1CCCN1 [Example 134, (2S)—N-[[6-(4,4-Difluoro-1-piperidyl)-5-fluoro-2-methoxy-3-pyridyl]methyl]-pyrrolidine-2-carboxamide; 2,2,2-trifluoroacetic Acid] | < 5 L/h/kg | < 20 nM | > 70% | 
